Data on one compound can be found in US20190358343A1, “ADOPTIVE TRANSFER OF CAR T CELLS WITH SURFACE-CONJUGATED DRUG-LOADED NANOPARTICLES AND USES THEREOF” (University of Southern California, priority 2017, published 2019).

In data set [1] the test system is PBMCs. The experiment in a line: In vitro XTT assay. Format: cell-based, human. An excerpt:
(§1) Based on the procedure of nanoparticle-cell surface conjugation developed in Stephen et al (2010), we pioneered the utilization of CAR engineered human PBMCs as therapeutic cells that have nanoparticles conjugated to the surface. The nanoparticles encapsulate small molecule inhibitors of the A2a receptor, e.g., SCH 58261, which is highly hydrophobic and is generally unsuitable for systemic infusion. […] Therefore, SCH 58261 is a suitable drug to illustrate the advantage of this T cell-nanoparticle cargo system for the purposes of enhancing CAR T cell therapy by co-delivering therapeutic cells and adjuvant in the same unit. Compare with other compositions or systems to block the A2aR pathway, such as genetically engineering CAR-T cells with the CRISPR/Cas system or receptor siRNA knock down, a major advantage of presently disclosed composition and method is the ability of the drug to affect endogenous T cells and circulating CAR-T cells, as well as the carrier CAR-T cells themselves.
Background: Tetrazolium assays rely on reduction of a dye to a coloured formazan, in cell work by metabolically active cells.

Data set [2] concerns tumor cells (SKOV3-CD19+). The data set can be described thus: In vitro XTT assay. Format: cell-based, human.
From the text: as §1

For data set [3] the following is noted: cited from earlier work.
Data set [4] concerns the target adenosine receptor A2A (Homo sapiens, UniProt P29274). The note with it: cited from earlier work.

Where two headings read alike, the source gives them in different places.

adenosine receptor A2A, sequence (P29274 whole entry, species assumed): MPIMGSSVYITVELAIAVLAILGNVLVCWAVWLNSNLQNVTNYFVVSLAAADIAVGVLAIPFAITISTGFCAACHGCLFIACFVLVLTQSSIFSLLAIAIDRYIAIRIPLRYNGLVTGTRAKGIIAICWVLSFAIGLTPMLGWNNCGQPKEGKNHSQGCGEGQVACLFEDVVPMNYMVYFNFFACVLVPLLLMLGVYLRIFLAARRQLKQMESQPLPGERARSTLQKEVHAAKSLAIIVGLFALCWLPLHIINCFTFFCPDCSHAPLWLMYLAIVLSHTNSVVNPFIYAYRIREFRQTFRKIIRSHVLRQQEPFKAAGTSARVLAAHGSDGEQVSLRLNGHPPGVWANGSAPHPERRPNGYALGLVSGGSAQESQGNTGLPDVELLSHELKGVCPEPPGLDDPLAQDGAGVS

As for `Nc1nc2c(cnn2CCc2ccccc2)c2nc(-c3ccco3)nn12` [SCH-58261], the cytotoxic effects result in data set [1] is “does not have cytotoxic effects”; in data set [2] it was “does not have cytotoxic effects”; in data set [2] (listed as SCH), “not directly affected”. Also, in data set [3], the solubility entry is “poor solubility”. Further, in data set [4], the “selectivity for A2A over other adenosine receptors” value is recorded as “more than 50 times”.
